Experimental data published in paper PMC6271529, “Studies on the Anticonvulsant Activity and Influence on GABA-ergic Neurotransmission of 1,2,4-Triazole-3-thione-Based Compounds” (Molecules, 2014).
Where two headings read alike, the source gives them in different places.

Key:
[1] = system: maximal electroshock-induced seizures; assay: Maximal electroshock-induced seizure (MES) test in mice; type: in vivo, mouse; details: for responders at 300 mg/kg / ED50: Mus musculus, ip; for responders at 300 mg/kg: read-out: percent of animals protected against MES-induced seizures; for anticonvulsant activity (in words): MES test; for time to peak of the anticonvulsant action: after i.p. administration; for PI (TD50/ED50): protective index; for onset of action: significant protection as early as 15 min after parenteral administration
Procedure: Additionally, all efforts were made to minimize animal suffering and to use only the number of animals necessary to produce reliable scientific data.
In the initial stage of the study, groups of eight mice were supplied with the compounds (administered intraperitoneally) in a dose of 300 mg/kg and then exposed to electrical impulse at fixed intervals (15, 30, 60, 120 min).
Each mouse was used only once.
Fresh drug solutions were prepared on each day of experimentation and administered at 15, 30, 60 and 120 min. before the initiation of maximal electroconvulsions. Electroconvulsions were produced by a current (0.2 s stimulus duration; 500 V, 50 Hz, fixed current intensity of 25 mA) delivered via ear-clip electrodes by a Rodent Shocker generator (constant-current stimulator Type 221, Hugo Sachs Elektronik, Freiburg, Germany). The criterion for the occurrence of seizure activity was the tonic hind limb extension. The animals were administered with a constant dose of 300 mg/kg of each of the examined compounds and were subjected to MES-induced seizures. […] The animals were administered with different doses of the tested compounds so as to obtain a variable percentage of protection against maximal electroconvulsions, allowing the construction of dose-response relationship lines for each examined compound administered i.p. at various pretreatment times, according to Litchfield and Wilcoxon. Each ED50 value represents the dose of the studied compounds that is required to protect 50% of the animals tested against MES-induced seizures.

[2] = 300 mg/kg i.p., pretreatment time 15 min, mice
[3] = 300 mg/kg i.p., pretreatment time 30 min, mice
[4] = 300 mg/kg i.p., pretreatment time 60 min, mice
[5] = 300 mg/kg i.p., pretreatment time 120 min, mice
[6] = 0.25 h, 300 mg/kg i.p., pretreatment time 15 min, mice
[7] = 0.5 h, 300 mg/kg i.p., pretreatment time 30 min, mice
[8] = 1 h, 300 mg/kg i.p., pretreatment time 60 min, mice
[9] = 2 h, 300 mg/kg i.p., pretreatment time 120 min, mice
[10] = pretreatment time 15 min, mice, read-out: ED50 ± S.E. (MES test)
[11] = pretreatment time 30 min, mice, read-out: ED50 ± S.E. (MES test)
[12] = pretreatment time 60 min, mice, read-out: ED50 ± S.E. (MES test)
[13] = pretreatment time 120 min, mice, read-out: ED50 ± S.E. (MES test)
[14] = chimney TD50 / MES ED50, pretreatment time 15 min
[15] = chimney TD50 / MES ED50, pretreatment time 30 min
[16] = chimney TD50 / MES ED50, pretreatment time 60 min
[17] = chimney TD50 / MES ED50, pretreatment time 120 min

| melting point [°C] | Compound | p/t, number of animals protected against MES-induced seizures / number tested [1, 2] | p/t, number of animals protected against MES-induced seizures / number tested [1, 3] | p/t, number of animals protected against MES-induced seizures / number tested [1, 4] | p/t, number of animals protected against MES-induced seizures / number tested [1, 5] | responders at 300 mg/kg [1, 6] [%] | responders at 300 mg/kg [1, 7] [%] | responders at 300 mg/kg [1, 8] [%] | responders at 300 mg/kg [1, 9] [%] | other results |
| --- | --- | --- | --- | --- | --- | --- | --- | --- | --- | --- |
| 221 to 222 | Fc1cccc(-n2c(-c3cccc(Cl)c3)n[nH]c2=S)c1 [Compound 2a, 5-(3-Chlorophenyl)-4-(3-fluorophenyl)-2,4-dihydro-3H-1,2,4-triazole-3-thione] | 0/8 | 0/8 | 0/8 | 0/8 | 0 | 0 | 0 | 0 | – |
| – | Fc1ccc(-n2c(-c3cccc(Cl)c3)n[nH]c2=S)cc1 [Compound 3a, 5-(3-Chlorophenyl)-4-(4-fluorophenyl)-2,4-dihydro-3H-1,2,4-triazole-3-thione] | – | – | – | – | – | – | – | – | acute adverse effects at the screening dose ([1]; 300 mg/kg i.p., mice, protective effect in MES could not be established): acute adverse effects; anticonvulsant activity (in words) ([1]; mice): most potent activity; ED50 [1, 10]: 35.2 ± 5.3 mg/kg; ED50 [1, 11]: 93.6 ± 9.4 mg/kg; ED50 [1, 12]: > 200 mg/kg; ED50 [1, 13]: > 200 mg/kg; time to peak of the anticonvulsant action ([1]; MES, mice): 15 min; anticonvulsant activity at decreased doses ([1]; doses lowered to those not inducing neurotoxic effects, MES, mice): retained its anticonvulsant activity; anticonvulsant activity relative to valproate ([1]; from ED50 values, MES): approximately five and a half times higher than that of valproate; PI (TD50/ED50) [1, 14]: 3.9; PI (TD50/ED50) [1, 15]: 1.6; onset of action ([1]; MES, mice): quick onset of action |
| – | S=c1[nH]nc(-c2cccc(Cl)c2)n1-c1ccc(Cl)cc1 [Compound 4a, 4-(4-Chlorophenyl)-5-(3-chlorophenyl)-2,4-dihydro-3H-1,2,4-triazole-3-thione] | 8/8 | 8/8 | 7/8 | 7/8 | 100 | 100 | 87.5 | 87.5 | ED50 [1, 10]: 90.1 ± 15.7 mg/kg; ED50 [1, 11]: 135 ± 19.8 mg/kg; ED50 [1, 12]: 171 ± 21.4 mg/kg; ED50 [1, 13]: 184 ± 28 mg/kg; PI (TD50/ED50) [1, 14]: 3.9; PI (TD50/ED50) [1, 15]: 2.7; PI (TD50/ED50) [1, 16]: 2.1; PI (TD50/ED50) [1, 17]: 2.0; onset of action ([1]; MES, mice): quick onset of action |
| – | S=c1[nH]nc(-c2cccc(Cl)c2)n1-c1ccc(I)cc1 [Compound 7a, 5-(3-Chlorophenyl)-4-(4-iodophenyl)-2,4-dihydro-3H-1,2,4-triazole-3-thione] | 0/8 | 0/8 | 0/8 | 0/8 | 0 | 0 | 0 | 0 | anticonvulsant activity (in words) ([1]; mice): inactive |
| 186 to 188 | Cc1ccccc1-n1c(-c2cccc(Cl)c2)n[nH]c1=S [Compound 8a, 5-(3-Chlorophenyl)-4-(2-methylphenyl)-2,4-dihydro-3H-1,2,4-triazole-3-thione] | 0/8 | 0/8 | 0/8 | 0/8 | 0 | 0 | 0 | 0 | – |
| 200 to 201 | Cc1cccc(-n2c(-c3cccc(Cl)c3)n[nH]c2=S)c1 [Compound 9a, 5-(3-Chlorophenyl)-4-(3-methylphenyl)-2,4-dihydro-3H-1,2,4-triazole-3-thione] | 0/8 | 0/8 | 0/8 | 1/8 | 0 | 0 | 0 | 12.5 | – |
| 218 to 220 | CC(=O)c1ccc(-n2c(-c3cccc(Cl)c3)n[nH]c2=S)cc1 [Compound 11a, 4-(4-Acetylphenyl)-5-(3-chlorophenyl)-2,4-dihydro-3H-1,2,4-triazole-3-thione] | 1/8 | 1/8 | 1/8 | 0/8 | 12.5 | 12.5 | 12.5 | 0 | – |
| – | S=c1n(CN2CCOCC2)nc(-c2cccc(Cl)c2)n1-c1ccc(Br)cc1 [Compound 19a, 4-(4-Bromophenyl)-5-(3-chlorophenyl)-2-(morpholin-4-ylmethyl)-2,4-dihydro-3H-1,2,4-triazole-3-thione] | 0/8 | 0/8 | 0/8 | 0/8 | 0 | 0 | 0 | 0 | – |
| – | S=c1n(CN2CCN(c3ccccc3)CC2)nc(-c2cccc(Cl)c2)n1-c1ccc(Br)cc1 [Compound 20a, 4-(4-Bromophenyl)-5-(3-chlorophenyl)-2-[(4-phenylpiperazin-1-yl)methyl]-2,4-dihydro-3H-1,2,4-triazole-3-thione] | 0/8 | 0/8 | 0/8 | 0/8 | 0 | 0 | 0 | 0 | – |
| – | Fc1ccc(N2CCN(Cn3nc(-c4cccc(Cl)c4)n(-c4ccc(Br)cc4)c3=S)CC2)cc1 [Compound 21a, 4-(4-Bromophenyl)-5-(3-chlorophenyl)-2-{[4-(4-fluorophenyl)piperazin-1-yl]methyl}-2,4-dihydro-3H-1,2,4-triazole-3-thione] | 0/8 | 0/8 | 0/8 | 0/8 | 0 | 0 | 0 | 0 | – |
| – | S=c1n(CN2CCOCC2)nc(-c2ccc(Cl)cc2)n1-c1ccc(Br)cc1 [Compound 28a, 4-(4-Bromophenyl)-5-(4-chlorophenyl)-2-(morpholin-4-ylmethyl)-2,4-dihydro-3H-1,2,4-triazole-3-thione] | 0/8 | 0/8 | 0/8 | 0/8 | 0 | 0 | 0 | 0 | – |

| Compound | melting point [°C] | p/t, number of animals protected against MES-induced seizures / number tested [1, 2] | p/t, number of animals protected against MES-induced seizures / number tested [1, 3] | p/t, number of animals protected against MES-induced seizures / number tested [1, 4] | p/t, number of animals protected against MES-induced seizures / number tested [1, 5] | responders at 300 mg/kg [1, 6] [%] | responders at 300 mg/kg [1, 7] [%] | responders at 300 mg/kg [1, 8] [%] | responders at 300 mg/kg [1, 9] [%] | other results |
| --- | --- | --- | --- | --- | --- | --- | --- | --- | --- | --- |
| Fc1ccc(-n2c(-c3ccc(Cl)cc3)n[nH]c2=S)c(F)c1 [Compound 13a, 5-(4-Chlorophenyl)-4-(2,4-difluorophenyl)-2,4-dihydro-3H-1,2,4-triazole-3-thione] | 196 to 198 | 8/8 | 8/8 | 8/8 | 8/8 | 100 | 100 | 100 | 100 | ED50 [1, 10]: 104 ± 15.8 mg/kg; ED50 [1, 11]: 100 ± 30.1 mg/kg; ED50 [1, 12]: 109 ± 11.9 mg/kg; ED50 [1, 13]: 80 ± 10.9 mg/kg; ED50 ([1]; pretreatment times 15, 30, 60, 120 min, read-out: ED50 (MES), range over pretreatment times): 80 to 109 mg/kg; time to peak of the anticonvulsant action ([1]; MES, mice): 120 min; PI (TD50/ED50) [1, 14]: 1.9; PI (TD50/ED50) [1, 15]: 1.9; PI (TD50/ED50) [1, 16]: 1.6; PI (TD50/ED50) [1, 17]: 2.7; onset of action ([1]; MES, mice): quick onset of action |
